Measurements: patent US4206215A, “Antimicrobial bis-[4-(substituted-amino)-1-pyridinium]alkanes” (Sterling Drug Inc., priority 1977, dated 1980)
Where two headings read alike, the source gives them in different places.

What was measured:
P. mirab. MGH-1 = test: In vitro antibacterial activity, MIC (modified Autotiter method); format: cell-based, Proteus mirabilis; details: Proteus mirabilis, 20 h, read-out: MIC P. mirab. MGH-1
Protocol: (§1) The antibacterial and antifungal activity of representative examples of the compounds of Formula I was determined using a modification of the Autotiter method described by Goss, et al. Applied Microbiology 16 (9) 1,414-1,416 (1968) in which a 1,000 mcg./ml. solution of the test compound is prepared. To the first cup of the Autotray is added 0.1 ml. of the test solution. Activation of the Autotiter initiates a sequence of operations by which 0.05 ml. of the test compound solution is withdrawn from the cup by a Microtiter transfer loop and diluted in 0.05 ml. of sterile water. Following this operation, 0.05 ml. of inoculated double-strength semisynthetic medium (glucose) is added automatically to each cup. The overall operation results in final drug concentrations ranging from 500 to 0.06 mcg./ml. in twofold decrements. […] The compounds were thus tested as solutions against a variety of gram positive and gram negative bacteria including Staphylococcus aureus, Proteus mirabilis, Escherichia coli, Klebsiella pneumoniae, Pseudomonas aeruginosa, Streptococcus pyogenes, and against such fungi as Aspergillus niger, Candida albicans and Trichophyton mentagrophytes.

C. albicans 10231 = test: In vitro antifungal activity, MIC (modified Autotiter method); format: cell-based, Candida albicans; details: Candida albicans, 10231, 20 h, read-out: MIC C. albicans 10231
Protocol: as §1

C. albicans Wisc. = test: as above; format: cell-based, Candida albicans; details: Candida albicans, 20 h, read-out: MIC C. albicans Wisc.
Protocol: as §1

Ps. aerug. MGH-2 = test: In vitro antibacterial activity, MIC (modified Autotiter method); format: cell-based, Pseudomonas aeruginosa; details: Pseudomonas aeruginosa, 20 h, read-out: MIC Ps. aerug. MGH-2
Protocol: as §1

A. niger 16404 = test: In vitro antifungal activity, MIC (modified Autotiter method); format: cell-based, Aspergillus niger; details: Aspergillus niger, 16404, 20 h, read-out: MIC A. niger 16404
Protocol: as §1

S. Aureus Smith = test: In vitro antibacterial activity, MIC (modified Autotiter method); format: cell-based, Staphylococcus aureus; details: Staphylococcus aureus, 20 h, read-out: MIC S. Aureus Smith
Protocol: as §1

S. pyogen. C203 = test: as above; format: cell-based, Streptococcus pyogenes; details: Streptococcus pyogenes, 20 h, read-out: MIC S. pyogen. C203
Protocol: as §1

E. coli AB1932-1 = test: as above; format: cell-based, Escherichia coli; details: Escherichia coli, AB19321, 20 h, read-out: MIC E. coli AB1932-1
Protocol: as §1

E. coli 100/B22 = test: as above; format: cell-based, Escherichia coli; details: Escherichia coli, 100/B22, 20 h
Protocol: as §1

E. coli Vogel = test: as above; format: cell-based, Escherichia coli; details: Escherichia coli, 20 h, read-out: MIC E. coli Vogel
Protocol: as §1

K. pneum. 39645 = test: as above; format: cell-based, Klebsiella pneumoniae; details: Klebsiella pneumoniae, 20 h, read-out: MIC K. pneum. 39645
Protocol: as §1

T. menta. 9129 = test: In vitro antifungal activity, MIC (modified Autotiter method); format: cell-based, Trichophyton mentagrophytes; details: Trichophyton mentagrophytes, 20 h, read-out: MIC T. menta. 9129
Protocol: as §1

[1] = 18-20 hours at 37° C., read-out: MIC E. coli 100/B22

SMILES | MIC (P. mirab. MGH-1; 18-20 hours at 37° C.) [µg/mL] | MIC (C. albicans 10231; 18-20 hours at 37° C.) [µg/mL] | MIC (C. albicans Wisc.; 18-20 hours at 37° C.) [µg/mL] | MIC (Ps. aerug. MGH-2; 18-20 hours at 37° C.) [µg/mL] | MIC (A. niger 16404; 18-20 hours at 37° C.) [µg/mL] | MIC (S. Aureus Smith; 18-20 hours at 37° C.) [µg/mL] | MIC (S. pyogen. C203; 18-20 hours at 37° C.) [µg/mL] | MIC (E. coli AB1932-1; 18-20 hours at 37° C.) [µg/mL] | MIC (E. coli 100/B22; [1]) [µg/mL] | MIC (E. coli Vogel; 18-20 hours at 37° C.) [µg/mL] | MIC (K. pneum. 39645; 18-20 hours at 37° C.) [µg/mL] | MIC (T. menta. 9129; 18-20 hours at 37° C.) [µg/mL] | also measured
Nc1cc[n+](CCCCCCCCCC[n+]2ccc(N)cc2)cc1 [II, 1,10-bis-(4-amino-1-pyridinium)decane dibromide, reference compound] | – | – | – | – | – | – | – | – | – | – | – | – | MIC (P. mirab. MGH-1): > 500 µg/mL; MIC (C. albicans 10231): 250 µg/mL; MIC (C. albicans Wisc.): 62.5 µg/mL; MIC (Ps. aerug. MGH-2): 500 µg/mL; MIC (A. niger 16404): 125 µg/mL; MIC (S. Aureus Smith): 7.8 µg/mL; MIC (S. pyogen. C203): 7.8 µg/mL; MIC (E. coli AB1932-1): 31.3 µg/mL; MIC (E. coli 100/B22; read-out: MIC E. coli 100/B22, 18-20 hours at 37° C.): 62.5 µg/mL; MIC (E. coli Vogel): 62.5 µg/mL; MIC (K. pneum. 39645): 250 µg/mL; MIC (T. menta. 9129): 15.6 µg/mL
Clc1ccc(Nc2cc[n+](CCCC[n+]3ccc(Nc4ccc(Cl)cc4)cc3)cc2)cc1 [Example 76C, 1,4-bis-[4-(p-chlorophenylamino)-1-pyridinium]butane dimethanesulfonate] | > 250 | 125 | 12.5 | > 125 | > 250 | 7.8 | 1.95 | 7.8 | 15.6 | 15.6 | > 250 | 62.5 | –
Fc1ccc(Nc2cc[n+](CCCCCCCC[n+]3ccc(Nc4ccc(F)cc4)cc3)cc2)cc1 [Example 84, 1,8-bis-[4-p-fluorophenylamino)-1-pyridinium]octane dibromide] | > 125 | 15.6 | 7.8 | > 62.5 | 15.6 | 1.95 | 7.8 | 7.8 | 15.6 | 15.6 | > 62.5 | 15.6 | –
Nc1cc[n+](CCCCCCCC[n+]2ccc(N)cc2)cc1 [I, 1,8-bis-(4-amino-1-pyridinium)octane dibromide, reference compound] | > 500 | 125 | 125 | > 500 | 125 | 31.3 | 31.3 | 125 | 250 | 125 | > 500 | 125 | –
CCCCCCCCCCCCNc1cc[n+](CCCCCCCCCC[n+]2ccc(NCCCCCCCCCCCC)cc2)cc1 [Example 74, 1,10-bis-[4-(dodecylamino)-1-pyridinium]decane dibromide] | > 62.5 | > 62.5 | > 62.5 | > 62.5 | > 62.5 | 15.6 | 15.6 | > 62.5 | > 62.5 | > 62.5 | > 62.5 | 15.6 | –
CCCCCCCCCNc1cc[n+](CCCCCCC[n+]2ccc(NCCCCCCCCC)cc2)cc1 [Example 49, 1,7-bis-[4-(nonylamino)-1-pyridinium]heptane dibromide] | 3.9 | 1.95 | 1.95 | 15.6 | 7.8 | 0.5 | 1 | 1.95 | 1.95 | 1 | 1.95 | 1 | –
CCCNc1cc[n+](CCCCCCCCCC[n+]2ccc(NCCC)cc2)cc1 [Example 30, 1,10-bis-[4-(propylamino)-1-pyridinium]decane dibromide] | > 250 | 15.6 | 7.8 | > 62.5 | 31.3 | 1.95 | 3.9 | > 62.5 | > 62.5 | > 62.5 | > 62.5 | 1 | –
